# From PubChem BioAssay AID1996
# Details: buffer; pH 7.4; 200.0 µM
row,SMILES,solubility kinetic [mg/mL]
1,O=C1Nc2ccccc2C1=Nc1ccc(Br)cc1,0.0067
2,CCc1nn(CC(=O)N2CCC(C)CC2)c(=O)c2cccn12,> 0.0454
3,CCN(CC)CCOCCOc1ccc(Cl)c2ccccc12,0.0322
4,O=C(NCc1ccco1)c1ccccc1,> 0.0302
5,CN(CC(=O)Nc1ccccc1Cl)C(=O)CN1C(=O)C2CC=CCC2C1=O (stereo not drawn),0.0503
6,CN(C)Cc1ccccc1Sc1ccc2c(c1)CCCC2.O=C(O)C(=O)O,0.0055
7,O=C(O)C1C2CCC(C2)C1C(=O)NCCc1ccccc1 (stereo not drawn),0.0429
8,Cc1ccc(C(=O)NCC(=O)OCC(=O)NC2CCCCCCC2)cc1,0.0532
9,CC(=O)c1ccc(NC(=O)Nc2cccnc2)cc1,0.0324
10,O=C1NCC(COc2ccc([N+](=O)[O-])cc2)O1 (stereo not drawn),0.0341
11,CC(=O)Nc1ccc(S(=O)(=O)N2CCN3CCCC3C2)cc1 (stereo not drawn),> 0.0485
12,Cc1nc2ccccn2c1C(=O)NN=C1CCCC1,> 0.0384
13,CNC(=S)Nc1ccc(Cc2ccncc2)cc1,> 0.0386
14,O=C(c1ccc(Cn2cc([N+](=O)[O-])cn2)o1)N1CCCC1,> 0.0435
15,CN(C(=O)COC(=O)CNC(=O)c1sc2ccccc2c1Cl)C1CCS(=O)(=O)C1 (stereo not drawn),> 0.0688
16,CCOc1ccc(NC(=O)N(C2CCCC2)C2CCN(C(C)=O)CC2)cc1,> 0.056
17,CCc1ccc(N2CC(C)Cn3c2nc2c3c(=O)[nH]c(=O)n2C)cc1 (stereo not drawn),0.0073
18,CCN(CC(=O)Nc1ccc(C(C)=O)cc1)CC(=O)Nc1ccc2c(c1)OCCO2.O=C(O)C(=O)O,> 0.0752
19,O=C(/C=C/c1ccc(-c2cccc([N+](=O)[O-])c2)o1)N1CCOCC1,0.0039
20,CCOCCc1c(O)nc(SCC)[nH]c1=O,> 0.0366
21,CCc1ccc(/C=C/c2c([N+](=O)[O-])c(=O)n(C)c(=O)n2C)cc1,0.0076
22,CN(C)C(=O)c1ccccc1NC(=O)Cc1cccc2ccccc12,0.0498
23,CCN(CC)CCOCCOC(=O)C(CC)(CC)c1ccccc1,0.0477

row,SMILES,solubility kinetic [mg/mL]
1,CCNS(=O)(=O)c1ccc(CCC(=O)N2CCCC2)cc1,> 0.0466
2,O=C1c2ccc([N+](=O)[O-])cc2S(=O)(=O)N1Cc1ccccc1,0.0083
3,N#Cc1c(C(F)(F)F)cc(Cc2ccccc2)nc1SCC(=O)NCC(=O)O,> 0.0614
4,O=C(Nc1ccc(Cl)cc1)N1CCOCC1,> 0.0361
5,CCC1(C)Cc2c(sc3nc(SC)[nH]c(=O)c23)CO1 (stereo not drawn),0.0079
6,NC(=O)c1c(/N=C/c2cccnc2)sc2c1CCCC2,0.022
7,N/C(=N\OC(=O)c1cccs1)c1cccnc1,0.0331
8,Nc1cccc(C(=O)N/N=C/c2ccsc2)c1,> 0.0368
9,N#C/C(=C\c1ccc(Cl)cc1)C(=O)NC1CC1,0.005
10,Fc1cc(F)c2nc(N3CCCC3)sc2c1,0.0094
11,CC(=O)Nc1ccc(CN2CCCN(C)CC2)cc1,0.0292
12,O=[N+]([O-])c1ccc(C[n+]2cccc3ccccc32)cc1.[Cl-],0.041
13,Nc1ccc(C2(c3ccc(N)cc3)OC(=O)c3ccccc32)cc1,0.0321
14,O=C(Nc1cccc(O)c1)c1cccc(S(=O)(=O)Nc2cccc(O)c2)c1,> 0.0577
15,C=CCSc1nc(C)c(CCC(C)C)c(=O)[nH]1,0.0092
16,O=C(O)C(=O)O.OC1(c2ccccc2)CCNC2CCCCC21 (stereo not drawn),> 0.0482
17,Cc1c(Cl)cccc1NC(=S)NCC(O)c1ccccc1 (stereo not drawn),0.0467
18,CN(Cc1nc(-c2ccc(C(F)(F)F)cc2)no1)C1CCOCC1,0.0373
19,Cc1nc(NC(=O)CSc2nc(N)cc(N)n2)sc1C,> 0.0466
20,CCCCNC(=O)C1CCC(=O)N1CCc1ccccc1 (stereo not drawn),0.0424
21,CNC(=O)/C(C#N)=C/c1c(N2CCN(C)CC2)nc2c(C)cccn2c1=O,> 0.055
22,Cc1ccccc1C(=O)NC(=S)N(CCO)Cc1ccccc1,> 0.0493
23,Cc1cc(Br)ccc1N=C1NC(=O)CS1,> 0.0428

row,SMILES,solubility kinetic [mg/mL]
1,O=C(c1cccc(Cl)c1)N1CCCc2ccccc21,0.0336
2,Cc1cc(OC(=O)N(C)C)nc(SCc2c(Cl)cccc2Cl)n1,0.0065
3,CN(Cc1ccccc1)C(=O)Nc1ccc(Cl)cc1,0.0385
4,COC(=O)c1ccc(NC(=O)CCCN2C(=O)NC(C)(C)C2=O)cc1,> 0.0521
5,Cc1ccc(S(=O)(=O)CC(O)COc2ccccc2C#N)cc1 (stereo not drawn),> 0.0497
6,CC(C)N(Cc1ccccc1)C(=O)c1cccs1,> 0.0389
7,CCCCOc1ccc(-c2ncc([N+](=O)[O-])cn2)cc1,< 0.0002
8,O=S(=O)(Nc1ccccc1N1CCCCC1)c1cccs1,0.0012
9,O=S(=O)(Nc1ccc(O)c2ccccc12)c1cccs1,0.0249
10,O=C(NCc1cccnc1)Nc1ccc([N+](=O)[O-])cc1,> 0.0408
11,Cc1ccc[n+](Cc2ccc([N+](=O)[O-])cc2)c1.[Br-],> 0.0464
12,CCN1CCN(c2nc3ccccn3c(=O)c2C=O)CC1,> 0.0429
13,Cc1cccc(N2CCN(C(=O)c3ccc(S(=O)(=O)N(C)c4ccccc4)cc3)CC2)c1C,0.0067
14,CCc1ccc(NC(=S)NCc2ccccc2)cc1,0.0274
15,O=c1c([N+](=O)[O-])cccn1Cc1cccc(Cl)c1,> 0.0397
16,O=C1CSC(c2cccnc2)N1Cc1ccc(Cl)cc1 (stereo not drawn),0.0426
17,O=C(O)c1ccccc1Nc1ccnc(C(F)(F)F)c1,> 0.0423
18,N#CN(Cc1ccccc1)Cc1ccccc1,0.0186
19,CC(=O)SCC[N+](C)(C)C.[Cl-],0.0294
20,CCC(C)NC(=O)CSc1ccc(S(=O)(=O)N(C)C2CCCCC2)cn1 (stereo not drawn),0.0594
21,Cc1ccsc1C1C(C#N)=C(N)N(N(C)C)C2=C1C(=O)CCC2 (stereo not drawn),> 0.0493

# The next lines start with the values.
row,solubility kinetic [mg/mL],SMILES
1,0.0123,Cc1ccc(C(=O)NCC(=O)Nc2ccncc2)cc1C
2,0.0078,COc1ccc(CN(C)C(C)C(=O)Nc2cccc3ccccc23)cc1 (stereo not drawn)
3,0.0129,Cc1cc(C(=O)COC(=O)C2CC2)c(C)n1-c1ccc(F)cc1
4,0.0258,O=C(Nc1cccc(S(=O)(=O)NC2=NCCC2)c1)c1ccc(F)cc1F
5,> 0.0591,NC(=O)C1CCN(C(=O)c2cc(-c3ccccc3Cl)nc3ccccc23)CC1
6,0.0182,Cc1ccc(Nc2cc(=O)[nH]c(=O)[nH]2)cc1C
7,0.047,COc1ccc(Cl)cc1S(=O)(=O)Nc1noc2ccccc12
8,0.0173,CC(C)C(C)NC(=O)Cn1cnc2c(oc3ccccc32)c1=O (stereo not drawn)
9,0.0015,CCC(C(=O)OC)n1c(-c2ccccc2)nc2ccccc2c1=O (stereo not drawn)
10,> 0.0559,CCn1c(C)nc2cc(C(=O)NN=Cc3ccccc3OC(F)F)ccc21
11,< 0.0007,Cc1ccc(OCC(=O)Nc2ccc3oc(=O)ccc3c2)cc1C
12,0.0465,COc1cccc(C2=NOC(C(=O)Nc3cc(C)on3)C2)c1OC (stereo not drawn)
13,0.0137,Cc1nc2c(c(=O)c3ccccc3n2C)c(=O)n1-c1ccc(F)cc1
14,> 0.0427,Cc1ccc(/C=N/NC(=O)c2ccc3nc[nH]c3c2)s1
15,> 0.0467,Cn1c(=O)n(C)c2cc(NC(=O)COc3ccccc3)ccc21
16,0.0448,COc1ccc(S(=O)(=O)N2CCC(C)CC2)cc1OC
17,0.0495,COc1ccc(Oc2cccc(Cl)c2CNC(=O)CCC(=O)O)cc1
18,> 0.0363,Cc1[nH]c2ccc(C(=O)N3CCCC3)cc2c1C
19,0.0106,Cc1noc(C)c1C(=O)OC(C)C(=O)NC(C)c1ccc(Cl)cc1Cl (stereo not drawn)
20,0.0455,CCN(CC)C(=O)c1ccc(COc2ccccc2Cl)o1
21,0.0069,CNS(=O)(=O)c1ccc(NC(=O)c2csc(C)c2)cc1
22,0.0031,Cc1ccc(CNC(=O)c2ccc3c(c2)NC(=O)CS3)cc1
23,< 0.0006,Cc1cccc(NC(=O)c2cc3ccccc3oc2=O)c1
24,> 0.064,CC(=O)Nc1ccc(NC(=O)C(C)Sc2nnc(-c3ccc4c(c3)OCO4)o2)cc1 (stereo not drawn)
25,0.0028,COc1cc(/C=C/C(=O)OC(C)C(=O)Nc2ccc(Cl)cn2)ccc1OC(F)F (stereo not drawn)
26,> 0.0425,Cc1cccc(C)c1NC(=O)CNC(=O)c1ccncc1

row,solubility kinetic [mg/mL],SMILES
1,0.0435,COc1ccc(CNC(=O)COc2cc(O)c3c(c2)OC(C)(C)CC3=O)cc1
2,0.0448,CCOC(=O)NC1Cc2ccccc2C1Sc1ccccn1 (stereo not drawn)
3,0.041,O=C(Nc1ccc2c(c1)C(=O)OC2)c1ccccc1Cl
4,0.0098,COc1ccccc1CNC(=O)c1oc2ccccc2c1C
5,0.0026,CCOc1ccc(-c2csc(NC(=O)c3ccco3)n2)cc1
6,> 0.0321,COc1ccc2nc3c(nc2c1)CCCC3
7,> 0.0527,Cc1cccc(C)c1NC(=O)N1C2CCC1CC(O)(c1cccnc1)C2 (stereo not drawn)
8,< 0.0002,CCOC(=O)c1ccc(Nc2cc(C)nc(-c3ccccc3)n2)cc1
9,> 0.0553,CSc1sc(C(=O)N(C)C)c2c1S(=O)(=O)N(C)c1ccccc1-2
10,0.0315,Cc1cc(C)cc(OCC(=O)N2CCc3ccccc3C2)c1
11,0.0021,COc1ccccc1CNC(=O)COC(=O)c1ccc(S(=O)(=O)N2CCCCC2)cc1
12,> 0.0396,CCN1C(=O)CSC1=Nc1cccc(C(=O)O)c1
13,0.0017,O=C(NC(=S)Nc1cccc2ncccc12)c1cccs1
14,> 0.0441,Cc1cc(C)nc(SCC(=O)c2ccc(F)cc2F)n1
15,> 0.046,CC(=O)Nc1ccc(S(=O)(=O)Nc2nccc(C)n2)cc1
16,0.0276,COc1ccc(CCNC(=O)COC(=O)c2ccc(C)s2)cc1
17,0.0011,Cc1onc(-c2ccccc2)c1C(=O)N=C(N)c1ccc(Cl)cc1
18,> 0.0503,CC1(C)Oc2ccc(C(=O)Nc3ccccc3)cc2N(CC#N)C1=O
19,> 0.0392,COc1ccc(CCC(=O)NC2CCCCC2)cc1
20,0.05,CC(C(=O)OCC(=O)NC1CCCC1)N1C(=O)c2ccccc2C1=O (stereo not drawn)
21,0.035,Cc1ccc(Nc2cc(C)nc3c(C)cccc23)cc1
22,0.0021,COc1ccc(NC(=O)c2ccc(N3CCCC3=O)cc2)cc1Cl
23,0.0024,CC(NC(=O)Nc1ccc(F)cc1F)c1ccc2c(c1)OCO2 (stereo not drawn)
24,< 0.0007,COc1ccc(NC(=O)CCC(=O)c2ccc(C(C)C)cc2)cc1
25,0.0016,COc1cccc(N2CCN(C(=O)c3cc4ccc(OC)cc4[nH]3)CC2)c1
